According to patent publication US7625580B1, “Semi-interpenetrating or interpenetrating polymer networks for drug delivery and tissue engineering” (Massachusetts Institute of Technology, priority 2000, dated 2009):

Test system: bovine chondroycytes
Experiment: Biocompatibility of the photoinitiator, tested without polymer, on chondrocytes before and after UVA exposure
Type: cell-based
Conditions: for cell damage (morphology) after light exposure: UVA 3 minutes at 1-3 mW/cm^2
Excerpt: Although the initiator PHK is approved for dental applications, the initiator was examined without the presence of polymer to ascertain the toxicity of the radical produced to initiate a photopolymerization. The PEOD is very reactive towards the radical so the lack of polymer would make all radicals available to damage cells (a worst case scenario). Three initiator concentrations (0.1, 0.05 and 0.01% (w/w)) were examined.
Chondrocyte isolated from calf shoulders were maintained ex vivo in cell culture medium (DMEM) at 37° C. and 5% CO2. Cells were passaged approximately once a week. Approximately 10,000 cells per well in an 8-well tissue culture plate were seeded. 1-hydroxycylcohexyl-phenyl-ketone (HPK) was added to DMEM to reach 0.1, 0.05 and 0.01% (w/w) concentrations. The cells were incubated for 24 hours in the present of the initiator to examine possible acute cell toxicity. The cells were then exposed to UVA radiation (2 mW/cm^2) for 3 minutes to activate the photoactive initiator.
To determine the effect of photoactive initiator concentration on cells before exposure to light, cells were exposed to a concentration of 0% (w/w), 0.1% (w/w), 0.05% (w/w), and 0.01% (w/w).
The effect of photoactive initiator concentration on cells after exposure to light for four days was determined by exposing cells to a concentration of 0% (w/w), 0.1% (w/w), 0.05% (w/w), and 0.01% (w/w). The cells were compared morphologically and in relation to cell proliferation for 4 days.
Further analysis was made between controls which were a) not exposed to initiator or UVA, b) cells exposed to UVA only and c) cells exposed to UVA in the presence of 0.01% PHK. The effect of photoactive initiator on cells when exposed to no light or photoactive initiator, light only, 0.01% light and initiator, and 24 hours after light exposure was determined.

SMILES: O=C(c1ccccc1)C1(O)CCCCC1 [initiator, 1-hydroxycylcohexyl-phenyl-ketone]
- effect on proliferation and morphology (0.01% PHK with UVA versus no-treatment and UVA-only controls, 24 hours after light exposure): does not appear to alter proliferation and morphology
- toxicity to cells before exposure to light (0.1, 0.05 and 0.01% (w/w), 24 hours incubation, no light): does not appear to be toxic
- cell damage (morphology) after light exposure (initiator 0.01% versus control): no damage
- cell damage (morphology) after light exposure (initiator 0.05%): Variable damage
- cell damage (morphology) after light exposure (initiator 0.1%): extensive cell death
